Reference: ChEMBL document CHEMBL1158650, “Isolation in High Yield of Citrinin From Penicillium odoratum and of Mycophenolic Acid From Penicillium brunneo-stoloniferum” (1979)
In brackets after ≈: the same amount, converted by molar mass.

How the values were obtained:
Format in all cases: functional
Fusarium graminearum = test: Antifungal activity against Gibberella zeae IFO 4474 by twofold dilution method
Alternaria = test: Antifungal activity against Alternaria maritima IFO 8618 by twofold dilution method
Bacillus subtilis = test: Antibacterial activity against Bacillus subtilis IFO 3108 by twofold dilution method

In the case of `COc1c(C)c2c(c(O)c1C/C=C(\C)CCC(=O)O)C(=O)OC2` [MYCOPHENOLIC ACID], the MIC (Fusarium graminearum) is reported as 200 µg/mL (≈ 624 µM) and the MIC (Alternaria) is reported as 200 µg/mL (≈ 624 µM).

In the case of `CC1=C2C(=CO[C@H](C)[C@H]2C)C(O)=C(C(=O)O)C1=O` [CITRININ], the MIC (Bacillus subtilis) is reported as 25 µg/mL (≈ 99.9 µM).
